# “And” between values parts separate entries of the source, which are not always exact repeats. Identical values can stand only once. Like-named read-outs stand apart in the source and are kept apart here.
# How the values were obtained:
# androgen receptor [1] = assay: Androgen receptor inhibition, Coccodia; type: binding
# progesterone receptor [2] = assay: Progesterone receptor inhibition, Saccharomyces cerevisiae strains; details: DHT:anti-androgen 1:1,000
# progesterone receptor [3] = assay: Progesterone receptor inhibition, Cryptococci; type: binding
# progesterone receptor [4] = assay: Fungal progesterone receptor inhibition, Fusarium; type: binding
# estrogen receptor [5] = assay: Estrogen receptor inhibition, Actinomyces; type: binding
# progesterone receptor [6] = assay: Progesterone receptor inhibition, Trichophyton; type: binding
# estrogen receptor [7] = assay: Estrogen receptor inhibition, Fulsarium gravarium; type: binding
# Text: (§1) In the second series of experiments using the compound of the invention 2-(5-hydroxyhept-1-yl) bicyclo[3.3.0]octan-7-one {hexahydro-4-(5-hydroxyheptyl)-2-(1H)-pentalenone} upon zeralenone and zearalanol production, zearalenone and zearalanol were chemically obtained from Sigma Chemical Co., St. Louis, Mo.
# androgen receptor [8] = assay: Androgen receptor inhibition, Pseudomonas testosteroni; type: binding; details: DHT:anti-androgen 1:1,000
# androgen receptor [9] = assay: Androgen receptor inhibition, Fulsarium gravarium; type: binding
# Text: as §1
# estrogen receptor [10] = assay: Fungal estrogen receptor inhibition, Fusarium; type: binding
# estrogen receptor [11] = assay: Estrogen receptor inhibition, Cryptococci; type: binding
# androgen receptor [12] = assay: Androgen receptor inhibition, Sporotrichum; type: binding
# estrogen receptor [13] = assay: Estrogen receptor inhibition, Coccodia; type: binding
# progesterone receptor [14] = type: binding; details: Histoplasma
# Saccharomyces cerevisiae = assay: Fermentation: ethanol production; type: cell-based
# androgen receptor [15] = assay: Androgen receptor inhibition, Trichophyton; type: binding
# estrogen receptor [16] = assay: Estrogen receptor inhibition, Torulopsis; type: binding
# progesterone receptor [17] = assay: Progesterone receptor inhibition, Blastomyces; type: binding
# progesterone receptor [18] = assay: Progesterone receptor inhibition, Norcardia; type: binding
# progesterone receptor [19] = assay: Progesterone receptor inhibition, Pseudomonas testosteroni; type: binding
# androgen receptor [20] = assay: Androgen receptor inhibition, Blastomyces; type: binding
# progesterone receptors = assay: Effect on progesterone receptors in breast capsule tissue; type: binding, human; details: breast capsule / hard band tissue
# Method: "Hard fibrous band" formation was retarded around breast implants following augmentation surgery.
# The tissues were evaluated, with appropriate controls, for effects by the novel anti-androgen.
# progesterone receptor [21] = assay: Effect on progesterone receptors in melanoma; type: binding; details: 1:1000 DHT to compound
# progesterone receptor [22] = target: T1, progesterone receptor (Homo sapiens, UniProt P06401); assay: Progesterone receptor inhibition in skin/tissue fibroblast lines; type: cell-based; details: DHT:compound 1:1,000
# T1 construct: Skin fibroblast tissue lines from surgical explants were obtained; endogenous in cells; host or cells: skin fibroblast lines from surgical explants (keloid, scalp, forearm)
# T1 sequence (P06401 1-933): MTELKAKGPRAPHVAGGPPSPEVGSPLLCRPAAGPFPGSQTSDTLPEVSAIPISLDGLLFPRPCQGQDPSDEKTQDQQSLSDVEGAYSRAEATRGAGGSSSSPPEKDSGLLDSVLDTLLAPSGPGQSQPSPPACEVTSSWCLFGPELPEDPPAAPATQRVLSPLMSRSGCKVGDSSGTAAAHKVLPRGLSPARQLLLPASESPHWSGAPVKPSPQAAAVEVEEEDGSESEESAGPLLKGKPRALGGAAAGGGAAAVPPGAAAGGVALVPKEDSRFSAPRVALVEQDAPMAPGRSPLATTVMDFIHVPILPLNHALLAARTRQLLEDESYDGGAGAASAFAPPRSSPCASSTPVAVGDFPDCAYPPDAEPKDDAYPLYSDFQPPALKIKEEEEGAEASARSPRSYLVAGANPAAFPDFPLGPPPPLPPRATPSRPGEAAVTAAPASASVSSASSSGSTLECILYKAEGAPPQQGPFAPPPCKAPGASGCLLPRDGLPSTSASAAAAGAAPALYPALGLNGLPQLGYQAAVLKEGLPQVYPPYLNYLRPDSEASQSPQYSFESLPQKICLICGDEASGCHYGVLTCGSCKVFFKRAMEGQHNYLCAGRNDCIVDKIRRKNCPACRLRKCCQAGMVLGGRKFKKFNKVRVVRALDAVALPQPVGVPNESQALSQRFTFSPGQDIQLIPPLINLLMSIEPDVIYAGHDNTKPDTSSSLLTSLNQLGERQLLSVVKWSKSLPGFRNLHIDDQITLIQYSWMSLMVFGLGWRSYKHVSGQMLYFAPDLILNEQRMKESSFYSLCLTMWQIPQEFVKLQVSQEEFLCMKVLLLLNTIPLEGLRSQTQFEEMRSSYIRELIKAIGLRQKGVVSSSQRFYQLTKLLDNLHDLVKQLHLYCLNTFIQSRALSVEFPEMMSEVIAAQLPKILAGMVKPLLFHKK
# Method: Explants of both normal and keloid skin and tissue fibroblast lines were established.
# Hormonal receptor analyses on these tissues were performed by the method of Griffith et al., Journal of Clinical Investigation, Vol. 57, page 1340 (1978).
# [23] = test system: androgen binding sites in a melanoma; assay: Blocking of androgen binding sites in a melanoma; details: 1:1000 of dihydrotestosterone to the tested compound
# keloid = assay: Suppression of keloid formation; parameters: species or system human
smiles,measurement,setting,value
CCC(O)CCCCC1CCC2CC(=O)CC12 (stereo not shown) [Compound IV],% Androgen Receptor Inhibition,androgen receptor [1],67%
same,% Progesterone Receptor Inhibition,progesterone receptor [2]; strain 1,2%
same,% Progesterone Receptor Inhibition,progesterone receptor [2]; strain 2,1%
same,% Progesterone Receptor Inhibition,progesterone receptor [2]; strain 3,0%
same,% Progesterone Receptor Inhibition,progesterone receptor [2]; strain 4,0%
same,% Progesterone Receptor Inhibition,progesterone receptor [2]; strain 5,3%
same,% Progesterone Receptor Inhibition,progesterone receptor [2]; strain 6,8%
same,% Progesterone Receptor Inhibition,progesterone receptor [2]; strain 7,4%
same,% Progesterone Receptor Inhibition,progesterone receptor [3],4%
same,% Progesterone Receptor Inhibition,progesterone receptor [4]; fungal hormone Zeralanol,0%
same,% Progesterone Receptor Inhibition,progesterone receptor [4]; fungal hormone Zeralenone,0%
same,% Estrogen Receptor Inhibition,estrogen receptor [5],0%
same,% Progesterone Receptor Inhibition,progesterone receptor [6],7%
same,% Estrogen Receptor Inhibition,estrogen receptor [7]; DHT:anti-androgen 1:1,0%
same,% Estrogen Receptor Inhibition,estrogen receptor [7]; DHT:anti-androgen 1:10,0%
same,% Estrogen Receptor Inhibition,estrogen receptor [7]; DHT:anti-androgen 1:100,0%
same,% Estrogen Receptor Inhibition,"estrogen receptor [7]; DHT:anti-androgen 1:1,000",0%
same,% Androgen Receptor Inhibition,androgen receptor [8]; strain 1,90%
same,% Androgen Receptor Inhibition,androgen receptor [8]; strain 2,49%
same,% Androgen Receptor Inhibition,androgen receptor [8]; strain 3,39%
same,% Androgen Receptor Inhibition,androgen receptor [8]; strain 4,63%
same,% Androgen Receptor Inhibition,androgen receptor [9]; DHT:anti-androgen 1:1,26%
same,% Androgen Receptor Inhibition,androgen receptor [9]; DHT:anti-androgen 1:10,49%
same,% Androgen Receptor Inhibition,androgen receptor [9]; DHT:anti-androgen 1:100,67%
same,% Androgen Receptor Inhibition,"androgen receptor [9]; DHT:anti-androgen 1:1,000",87%
same,% Estrogen Receptor Inhibition,estrogen receptor [10]; fungal hormone Zeralanol,0%
same,% Estrogen Receptor Inhibition,estrogen receptor [10]; fungal hormone Zeralenone,0%
same,% Estrogen Receptor Inhibition,estrogen receptor [11],0%
same,% Androgen Receptor Inhibition,androgen receptor [12],29%
same,% Estrogen Receptor Inhibition,estrogen receptor [13],0%
same,% Progesterone Receptor Inhibition,progesterone receptor [14],0%
same,depression of ethanol production,Saccharomyces cerevisiae; other strains,one-eighth its normal rate
same,increase of ethanol production,Saccharomyces cerevisiae; some strains,as much as three times the natural rate
same,% Androgen Receptor Inhibition,androgen receptor [15],81%
same,% Estrogen Receptor Inhibition,estrogen receptor [16],0%
same,% Progesterone Receptor Inhibition,progesterone receptor [17],3%
same,% Progesterone Receptor Inhibition,progesterone receptor [18],0%
same,% Progesterone Receptor Inhibition,progesterone receptor [19]; strain 1,0%
same,% Progesterone Receptor Inhibition,progesterone receptor [19]; strain 2,0%
same,% Progesterone Receptor Inhibition,progesterone receptor [19]; strain 3,0%
same,% Progesterone Receptor Inhibition,progesterone receptor [19]; strain 4,0%
same,% Androgen Receptor Inhibition,androgen receptor [20],49%
"CCC(CCCCC1CCC2CC(=O)CC12)OC (stereo not shown) [Compound V, 2-(5-Methoxyhept-1-yl)bicyclo[3.3.0]octan-7-one]",effect on progesterone receptors,progesterone receptors,without any significant effects
same,effect on progesterone receptors,progesterone receptors; listed as 2-(5-methoxyhept-1-yl)bicyclo[3.3.0]octan-7-one,no significant effects
same,effect on progesterone receptors in melanoma tissue,progesterone receptor [21],no significant effect
same,interference with progesterone receptors,progesterone receptor [22]; more than 400 experiments,without significant interference
same,% Progesterone Receptor Inhibition,progesterone receptor [22]; forearm,4%
same,% Progesterone Receptor Inhibition,progesterone receptor [22]; keloid,0%
same,% Progesterone Receptor Inhibition,"progesterone receptor [22]; keloid, listed as 2-(5-methoxyhept-1-yl)bicyclo[3.3.0]octan-7-one",no measurable
same,% Progesterone Receptor Inhibition,progesterone receptor [22]; scalp,7% and 0% and 3%
same,block of androgen binding sites in a melanoma,[23],59-80%
same,keloid formation,keloid,suppression of keloid formation
